From ChEMBL document CHEMBL3734730, “Discovery of novel 2-benzylisoquinolin-1(2H)-ones as potent vasodilative agents” (Bioorg Med Chem Lett, 2015) come the findings set out here.

Molecules are shown by their SMILES. Active and inactive are the calls of the source. No cut-off for these calls is given here.

What is called EC50 is the concentration that produces a half-maximal response. The Emax is the maximal effect, on the per cent scale that the assay sets.

Experiment [1] in a line: Vasodilative activity in isolated Sprague-Dawley rat Superior mesenteric arterial ring assessed as reduction in KCl-induced contraction at 10^-5 by wire myograph method. The arrangement: scale not given: the % may be the effect or the level left. The class given is functional.
A short description of experiment [2]: Vasodilative activity in isolated Sprague-Dawley rat Superior mesenteric arterial ring assessed as reduction in KCl-induced contraction by wire myograph method relative to control. The class given is functional.
Experiment [3] deals with Rattus norvegicus. Nature of the experiment: Antihypertensive activity in po-dosed SHR rat assessed as reduced diastolic pressure after 2 hrs by tail-cuff plethysmography. In kind it is functional, organism-based. To be noted: Blood.
Experiment [4] is described as follows: Vasodilative activity in isolated Sprague-Dawley rat renal arterial ring assessed as reduction in KCl-induced contraction by wire myograph method relative to control. In kind it is functional. The settings on record: Renal artery.
For experiment [5], the system named is Rattus norvegicus. Nature of the experiment: Antihypertensive activity in SHR rat assessed as reduced systolic pressure at 2 mg/kg, po after 2 hrs by tail-cuff plethysmography (reference value: 2 mmHg). The class given is functional, Blood.
The test system of experiment [6] is Rattus norvegicus. Nature of the experiment: Antihypertensive activity in SHR rat assessed as reduced systolic pressure at 8 mg/kg, po after 2 hrs by tail-cuff plethysmography (reference value: 2 mmHg). In kind it is functional, Blood.
The test system of experiment [7] is Rattus norvegicus. The experiment in a line: Antihypertensive activity in SHR rat assessed as reduced systolic pressure at 4 mg/kg, po after 0.5 hrs by tail-cuff plethysmography. In kind it is functional.
In experiment [8] the test system is Rattus norvegicus. Nature of the experiment: Antihypertensive activity in SHR rat assessed as reduced diastolic pressure at 4 mg/kg, po after 4 hrs by tail-cuff plethysmography. In kind it is functional.
The subject of experiment [9] is Rattus norvegicus. Nature of the experiment: Antihypertensive activity in SHR rat assessed as reduced systolic pressure at 4 mg/kg, po after 1 hr by tail-cuff plethysmography. In kind it is functional, Blood.
Experiment [10] concerns Rattus norvegicus. The experiment in a line: Antihypertensive activity in SHR rat assessed as reduced diastolic pressure at 1 mg/kg, po after 2 hrs by tail-cuff plethysmography (reference value: 2 mmHg). The class given is functional, Blood.
For experiment [11], the system named is Rattus norvegicus. Nature of the experiment: Antihypertensive activity in SHR rat assessed as reduced systolic pressure at 4 mg/kg, po after 2 hrs by tail-cuff plethysmography (reference value: 2 mmHg). In kind it is functional, Blood.
In experiment [12] the test system is Rattus norvegicus. The experiment in a line: Antihypertensive activity in po-dosed SHR rat assessed as reduced systolic pressure after 2 hrs by tail-cuff plethysmography. The settings on record: Blood. The class given is functional, organism-based.
Experiment [13] is described as follows: Vasodilative activity in isolated Sprague-Dawley rat mesenteric arterial ring assessed as reduction in phenylephrine-induced contraction at 10 uM pretreated for 30 mins followed by addition of 10^-8 to 10^-4 M phenylephrine by wire myograph method relative to control. The class given is functional. To be noted: Mesenteric artery.
The nature of experiment [14]: Vasodilative activity in isolated Sprague-Dawley rat second-order mesenteric arterial ring assessed as reduction in KCl-induced contraction by wire myograph method relative to control. The class given is functional. To be noted: Mesenteric artery.
Experiment [15] has as its system Rattus norvegicus. The experiment in a line: Antihypertensive activity in SHR rat assessed as reduced systolic pressure at 1 mg/kg, po after 2 hrs by tail-cuff plethysmography (reference value: 2 mmHg). In kind it is functional, Blood.
In experiment [16] the test system is Rattus norvegicus. Nature of the experiment: Antihypertensive activity in SHR rat assessed as reduced diastolic pressure at 4 mg/kg, po after 1 hr by tail-cuff plethysmography. The class given is functional.
Experiment [17] can be described thus: Vasodilative activity in isolated Sprague-Dawley rat coronary artery assessed as reduction in KCl-induced contraction by wire myograph method relative to control. In kind it is functional, tissue-based.
In experiment [18] the test system is Rattus norvegicus. Nature of the experiment: Antihypertensive activity in SHR rat assessed as reduced diastolic pressure at 2 mg/kg, po after 2 hrs by tail-cuff plethysmography (reference value: 2 mmHg). In kind it is functional, Blood.
Experiment [19] deals with Rattus norvegicus. Nature of the experiment: Antihypertensive activity in SHR rat assessed as reduced systolic pressure at 4 mg/kg, po after 5 hrs by tail-cuff plethysmography. In kind it is functional, Blood.
Experiment [20] in a line: Vasodilative activity in isolated Sprague-Dawley rat cerebral basilar arterial ring assessed as reduction in KCl-induced contraction by wire myograph method relative to control. In kind it is functional. The settings on record: Basilar artery.
Experiment [21] deals with Rattus norvegicus. The experiment in a line: Antihypertensive activity in SHR rat assessed as reduced diastolic pressure at 4 mg/kg, po after 2 hrs by tail-cuff plethysmography (reference value: 2 mmHg). In kind it is functional, Blood.
The test system of experiment [22] is Rattus norvegicus. Nature of the experiment: Antihypertensive activity in SHR rat assessed as reduced diastolic pressure at 4 mg/kg, po after 0.5 hrs by tail-cuff plethysmography. In kind it is functional, Blood.
In experiment [23] the test system is Rattus norvegicus. Nature of the experiment: Antihypertensive activity in SHR rat assessed as reduced diastolic pressure at 8 mg/kg, po after 2 hrs by tail-cuff plethysmography (reference value: 2 mmHg). In kind it is functional, Blood.
Experiment [24] in a line: Vasodilative activity in isolated Sprague-Dawley rat third-order mesenteric arterial ring assessed as reduction in KCl-induced contraction by wire myograph method relative to control. The class given is functional. The settings on record: Mesenteric artery.

For `COc1ccc2c(=O)n(Cc3ccc(OCc4ccc(F)cc4)c(OC)c3)ccc2c1`, in [1], the Activity was 82.4%. In addition, in [2], the EC50 is 398 nM and the Rmax is 94.3%.

As for `COc1cc2ccn(Cc3ccccc3)c(=O)c2cc1OC`, the Activity in experiment [1] amounted to 42.3%.

`O=C(O)c1cccc(Cn2ccc3cc4c(cc3c2=O)OCO4)c1`: in experiment [1], the Activity is 34.2%.

For the compound `COc1ccc(Cn2ccc3cccc(OC)c3c2=O)cc1`, the inhibition result in the experiment with Rattus norvegicus [3] and in the experiment with Rattus norvegicus [12] was “Dose-dependent effect” each time. Also, the 50% effective concentration (EC50) was 631 nM in [4]; 200 nM in experiment [2]; 20 nM in [14]; 2000 nM in experiment [17]; 398 nM in experiment [20]; 126 nM in experiment [24]. Also, the Emax in experiment [4] turned out to be 122%; in [14], 95.4%; in experiment [17] it was 107%; in experiment [20], 103%; in experiment [24], 99.9%. For the same compound, the Activity in [1] was found to be 96.3%; in the experiment with Rattus norvegicus [5] it was 14 mmHg; in the experiment on Rattus norvegicus [6], 46 mmHg; in the experiment on Rattus norvegicus [7], 4 mmHg; in the experiment on Rattus norvegicus [8], 10 mmHg; in the experiment with Rattus norvegicus [9], 7 mmHg. Further, the Activity in the experiment on Rattus norvegicus [10] turned out to be 10 mmHg; with Rattus norvegicus [11], 38 mmHg; in the experiment with Rattus norvegicus [15] it was 6 mmHg; in the experiment with Rattus norvegicus [16] it was 8 mmHg; in the experiment on Rattus norvegicus [18], 16 mmHg; in the experiment on Rattus norvegicus [19], 6 mmHg. The results for the Activity in the experiment with Rattus norvegicus [21], with Rattus norvegicus [22] and with Rattus norvegicus [23] were 44 mmHg, 0 mmHg and 53 mmHg, respectively. Besides, in experiment [2], the Rmax turned out to be 106%. Besides, the inhibition entry in experiment [13] is “Active”.

Turning to `COc1ccc2c(=O)n(Cc3ccccc3)ccc2c1`, the Activity in experiment [1] was 60.1%. Also, in [2], the EC50 is 2000 nM and the Rmax was determined as 61.8%.

Consider `O=c1c2cc(O)ccc2ccn1Cc1ccccc1`, for which the Activity in experiment [1] came out at 48.5%. In experiment [2], the concentration for a half-maximal effect (EC50) is 25100 nM and the Rmax was found to be 60.6%.

For `CCOC(=O)C1=C(C)NC(C)=C(C(=O)OC)C1c1cccc([N+](=O)[O-])c1` (stereo not given) [NITRENDIPINE], the Activity in experiment [1] is 99.9%; in the experiment with Rattus norvegicus [5], 9 mmHg; in the experiment with Rattus norvegicus [18], 5 mmHg. Also, the half-maximal effective concentration (EC50) in [2] was 0.316 nM. Moreover, the Rmax in experiment [2] amounted to 99.8%.

In the case of `COc1cc(Cn2ccc3cccc(OC)c3c2=O)cc(OC)c1OC`, the inhibition result in the experiment on Rattus norvegicus [3] and in the experiment on Rattus norvegicus [12] was “Dose-dependent effect” throughout. Also, the Activity turned out to be 93.8% in experiment [1]; 15 mmHg in the experiment on Rattus norvegicus [5]; 44 mmHg with Rattus norvegicus [6]; 1 mmHg in the experiment on Rattus norvegicus [10]; 34 mmHg with Rattus norvegicus [11]; 3 mmHg with Rattus norvegicus [15]. The Activity with Rattus norvegicus [18] was determined as 12 mmHg; with Rattus norvegicus [21] it was 39 mmHg; with Rattus norvegicus [23] it was 49 mmHg. Moreover, the half-maximal effective concentration (EC50) in experiment [2] was 251 nM. Also, the Rmax in experiment [2] amounted to 98.7%. Moreover, the inhibition result in experiment [13] is “Active”.

For `COC(=O)c1cccc(Cn2ccc3cc(OC)c(OC)cc3c2=O)c1`, the Activity in experiment [1] was determined as 37.6%.

`COc1ccc2c(=O)n(Cc3ccc(OC)c(OC)c3)ccc2c1`: the Activity in experiment [1] was 59%. In experiment [2], the EC50 was 3160 nM and the Rmax turned out to be 84.7%.

Regarding `COc1cc(O)c2c(=O)n(Cc3ccc(OC)c(OC)c3)ccc2c1`, in [1], the Activity amounted to 81.3%. Besides, in experiment [2], the concentration giving a half-maximal response (EC50) is 501 nM and the Rmax was 91.6%.

For the compound `COc1cc(OC)c2c(=O)n(Cc3ccc(OCc4ccc(F)cc4)c(OC)c3)ccc2c1`, the Activity in [1] is 74.1%. In addition, in experiment [2], the EC50 is 501 nM and the Rmax was 75.3%.

On to `COc1cc(OC)c2c(=O)n(Cc3cc(OC)c(OC)c(OC)c3)ccc2c1`, for which the Activity in experiment [1] came to 53.1%. Further, in [2], the EC50 is 6310 nM and the Rmax was 89.5%.

As for `COc1cc2ccn(Cc3cccc([N+](=O)[O-])c3)c(=O)c2cc1OC`, the Activity in [1] amounted to 57.4%. Further, in experiment [2], the half-maximal effective concentration (EC50) was 2000 nM and the Rmax stood at 67.4%.

For the compound `COc1cc2ccn(Cc3ccc(F)cc3)c(=O)c2cc1OC`, in [1], the Activity was 35.2%.

`COC(=O)c1cccc(Cn2ccc3cc4c(cc3c2=O)OCO4)c1`: in experiment [1], the Activity was found to be 50.6%. Moreover, in [2], the EC50 was 3980 nM and the Rmax was found to be 51.4%.

Regarding `O=c1c2ccc(O)cc2ccn1Cc1ccccc1`, in [1], the Activity came to 64.3%. In addition, in [2], the half-maximal effective concentration (EC50) was 3160 nM and the Rmax is 74.2%.

In the case of `COc1cc(OC)c2c(=O)n(Cc3ccc(OC)c(OC)c3)ccc2c1`, the Activity in experiment [1] was 66.8%. For the same compound, in experiment [2], the EC50 was 1000 nM and the Rmax is 76.4%.

For the compound `COc1cc2ccn(Cc3cc(OC)c(OC)c(OC)c3)c(=O)c2cc1OC`, the Activity in experiment [1] came out at 48.4%. Also, in [2], the EC50 was 15800 nM and the Rmax turned out to be 73.1%.

For `COc1cc2ccn(Cc3cccc(F)c3)c(=O)c2cc1OC`, the Activity in experiment [1] turned out to be 54%. Further, in [2], the EC50 is 3980 nM and the Rmax is 54.2%.

For `COc1cc2ccn(Cc3ccc(Cl)c(Cl)c3)c(=O)c2cc1OC`, in [1], the Activity came out at 26.6%.

With `COc1cc2ccn(Cc3cccc(N)c3)c(=O)c2cc1OC`, in experiment [1], the Activity turned out to be 51%. In experiment [2], the concentration giving a half-maximal response (EC50) was 5010 nM and the Rmax came out at 52.3%.

For `COc1ccc2c(=O)n(Cc3cc(OC)c(OC)c(OC)c3)ccc2c1`, the Activity in [1] was 72%. In experiment [2], the EC50 was 2000 nM and the Rmax came out at 84%.

Consider `COc1cccc2ccn(Cc3ccccc3)c(=O)c12`, for which the Activity in [1] is 63.2%. In addition, in experiment [2], the EC50 is 2510 nM and the Rmax stood at 71.3%.

As to `COc1ccc(Cn2ccc3cc(OC)ccc3c2=O)cc1`, the Activity in experiment [1] turned out to be 83.7%. In addition, in experiment [2], the half-maximal effective concentration (EC50) is 794 nM and the Rmax came out at 90.8%.
